Source: patent US20230293526A1, “METHOD FOR TREATING CANCER WITH A REVERSE TRANSCRIPTASE INHIBITOR” (PrimeFour Therapeutics, Inc., priority 2020, published 2023)

Key:
human LINE-1 = assay: Human LINE-1 (L1) retrotransposition dual-luciferase reporter assay in HeLa cells; assay type: cell-based; details: Homo sapiens, HeLa, 72 h, read-out: Human LINE-1 IC50 (Human L1 activity inhibition)
Summary of the method: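 Compound dilution series (final DMSO 0.2%) added right after transfecting HeLa cells with the pYX017 L1 dual-luciferase reporter; 72 h culture at 37 °C, 5% CO2, triplicates. IC50 fitted by non-linear logistic regression to firefly-to-Renilla luminescence ratio (×10,000).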

cancer cell lines = assay: Cancer cell proliferation activity of representative nucleosides, CellTiterGlo 72 h (Example 7, Tables 8 and 9); assay type: cell-based
Summary of the method: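 Percent viability was set against 0.1% DMSO (100%) and 10 μM staurosporine (0%), with signal from CellTiterGlo luminescence. Dose-response treatment began one day after seeding and lasted 72 h at 37° C under 5% or 10% CO2, with 0.1% final DMSO.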

IC50 (human LINE-1): 0.092 µM
IC50 (cancer cell lines; 72 h, 5637, 72 h (Table 9)): > 50 µM
IC50 (cancer cell lines; 72 h, CLS439, 72 h (Table 9)): > 50 µM
IC50 (cancer cell lines; 72 h, HS729, 72 h (Table 9)): > 50 µM
IC50 (cancer cell lines; 72 h, J82, 72 h (Table 9)): > 50 µM
IC50 (cancer cell lines; 72 h, JAR, 72 h (Table 9)): > 50 µM
IC50 (cancer cell lines; 72 h, MT3, 72 h (Table 9)): > 50 µM
IC50 (cancer cell lines; 72 h, PC3, 72 h (Table 9)): > 50 µM
IC50 (cancer cell lines; 72 h, RD, 72 h (Table 9)): > 50 µM
IC50 (cancer cell lines; 72 h, T24, 72 h (Table 9)): > 50 µM
IC50 (cancer cell lines; Homo sapiens, 22Rv1, 72 h, 22RV1, 72 h (Table 9)): > 50 µM
IC50 (cancer cell lines; Homo sapiens, 786-0, 72 h, 786O, 72 h (Table 9)): > 50 µM
IC50 (cancer cell lines; Homo sapiens, A204, 72 h, A204, 72 h (Table 9)): 0.41 µM
IC50 (cancer cell lines; Homo sapiens, A549, 72 h, A549, 72 h (Table 9)): > 50 µM
IC50 (cancer cell lines; Homo sapiens, A673, 72 h, A673, 72 h (Table 9)): > 50 µM
IC50 (cancer cell lines; Homo sapiens, A2780, 72 h, A2780, 72 h (Table 9)): > 50 µM
IC50 (cancer cell lines; Homo sapiens, A-375, 72 h, A375, 72 h (Table 9)): > 50 µM
IC50 (cancer cell lines; Homo sapiens, A-431, 72 h, A431, 72 h (Table 9)): 17.1 µM
IC50 (cancer cell lines; Homo sapiens, ACHN, 72 h, 72 h (Table 9)): 1.87 µM
IC50 (cancer cell lines; Homo sapiens, ASPC1, 72 h, ASPC1, 72 h (Table 9)): 2.46 µM
IC50 (cancer cell lines; Homo sapiens, BT-20, 72 h, BT20, 72 h (Table 9)): > 50 µM
IC50 (cancer cell lines; Homo sapiens, BXPC-3, 72 h, BXPC3, 72 h (Table 9)): > 50 µM
IC50 (cancer cell lines; Homo sapiens, C-33-A, 72 h, C33A, 72 h (Table 9)): > 50 µM
IC50 (cancer cell lines; Homo sapiens, CAKI-1, 72 h, CAKI1, 72 h (Table 9)): 2.95 µM
IC50 (cancer cell lines; Homo sapiens, COLO 205, 72 h, COLO205, 72 h (Table 9)): > 50 µM
IC50 (cancer cell lines; Homo sapiens, COLO-678, 72 h, COLO678, 72 h (Table 9)): > 50 µM
IC50 (cancer cell lines; Homo sapiens, Ca-Ski, 72 h, CASKI, 72 h (Table 9)): > 50 µM
IC50 (cancer cell lines; Homo sapiens, Caco-2, 72 h, CACO2, 72 h (Table 9)): > 50 µM
IC50 (cancer cell lines; Homo sapiens, Calu-6, 72 h, CALU6, 72 h (Table 9)): > 50 µM
IC50 (cancer cell lines; Homo sapiens, DLD-1, 72 h, DLD1, 72 h (Table 9)): > 50 µM
IC50 (cancer cell lines; Homo sapiens, DU-145, 72 h, DU145, 72 h (Table 9)): 1.41 µM
IC50 (cancer cell lines; Homo sapiens, EFO-21, 72 h, EFO21, 72 h (Table 9)): > 50 µM
IC50 (cancer cell lines; Homo sapiens, EJ-28, 72 h, EJ28, 72 h (Table 9)): > 50 µM
IC50 (cancer cell lines; Homo sapiens, Granta-519, 72 h, GRANTA-519, 72 h (Table 9)): 1.35 µM
IC50 (cancer cell lines; Homo sapiens, HCT-15, 72 h, HCT15, 72 h (Table 9)): > 50 µM
IC50 (cancer cell lines; Homo sapiens, HCT-116, 72 h, HCT116, 72 h (Table 9)): > 50 µM
IC50 (cancer cell lines; Homo sapiens, HEK293, 72 h, HEK293, 72 h (Table 9)): > 50 µM
IC50 (cancer cell lines; Homo sapiens, HL-60, 72 h, HL-60, 72 h (Table 9)): 3.36 µM
IC50 (cancer cell lines; Homo sapiens, HT-29, 72 h, HT29, 72 h (Table 9)): > 50 µM
IC50 (cancer cell lines; Homo sapiens, HT-1080, 72 h, HT1080, 72 h (Table 9)): > 50 µM
IC50 (cancer cell lines; Homo sapiens, HeLa, 72 h, 72 h (Table 9)): > 50 µM
IC50 (cancer cell lines; Homo sapiens, HepG2, 72 h, HEPG2, 72 h (Table 9)): 6.29 µM
IC50 (cancer cell lines; Homo sapiens, Hs-578T, 72 h, HS578T, 72 h (Table 9)): > 50 µM
IC50 (cancer cell lines; Homo sapiens, IGROV-1, 72 h, IGROV1, 72 h (Table 9)): > 50 µM
IC50 (cancer cell lines; Homo sapiens, IMR-90, 72 h, IMR90, 72 h (Table 9)): > 50 µM
IC50 (cancer cell lines; Homo sapiens, JEG-3, 72 h, JEG3, 72 h (Table 9)): > 50 µM
IC50 (cancer cell lines; Homo sapiens, JIMT-1, 72 h, JIMT1, 72 h (Table 9)): 8.56 µM
IC50 (cancer cell lines; Homo sapiens, K562, 72 h, K-562, 72 h (Table 9)): > 50 µM
IC50 (cancer cell lines; Homo sapiens, Kasumi 1, 72 h, KASUMI-1, 72 h (Table 9)): 18.7 µM
IC50 (cancer cell lines; Homo sapiens, L-363, 72 h, L-363, 72 h (Table 9)): > 50 µM
IC50 (cancer cell lines; Homo sapiens, LoVo, 72 h, 72 h (Table 9)): > 50 µM
IC50 (cancer cell lines; Homo sapiens, MCF7, 72 h, MCF7, 72 h (Table 9)): > 50 µM
IC50 (cancer cell lines; Homo sapiens, MDA-MB-231, 72 h, MDAMB231, 72 h (Table 9)): 5.38 µM
IC50 (cancer cell lines; Homo sapiens, MDA-MB-435, 72 h, MDAMB435, 72 h (Table 9)): > 50 µM
IC50 (cancer cell lines; Homo sapiens, MDA-MB-436, 72 h, MDAMB436, 72 h (Table 9)): > 50 µM
IC50 (cancer cell lines; Homo sapiens, MDA-MB-468, 72 h, MDAMB468, 72 h (Table 9)): > 50 µM
IC50 (cancer cell lines; Homo sapiens, MG-63, 72 h, MG63, 72 h (Table 9)): > 50 µM
IC50 (cancer cell lines; Homo sapiens, MHH-ES-1, 72 h, MHHES1, 72 h (Table 9)): 1.96 µM
IC50 (cancer cell lines; Homo sapiens, MIA PaCa-2, 72 h, MIAPACA2, 72 h (Table 9)): > 50 µM
IC50 (cancer cell lines; Homo sapiens, MINO, 72 h, 72 h (Table 9)): 4.93 µM
IC50 (cancer cell lines; Homo sapiens, MV4-11, 72 h, MV4-11, 72 h (Table 9)): > 50 µM
IC50 (cancer cell lines; Homo sapiens, NCI-H23, 72 h, NCI-H23, 72 h (Table 9)): > 50 µM
IC50 (cancer cell lines; Homo sapiens, NCI-H82, 72 h, NCIH82, 72 h (Table 9)): > 50 µM
IC50 (cancer cell lines; Homo sapiens, NCI-H292, 72 h, NCIH292, 72 h (Table 9)): 4.68 µM
IC50 (cancer cell lines; Homo sapiens, NCI-H460, 72 h, NCIH460, 72 h (Table 9)): > 50 µM
IC50 (cancer cell lines; Homo sapiens, OVCAR-3, 72 h, OVCAR3, 72 h (Table 9)): > 50 µM
IC50 (cancer cell lines; Homo sapiens, OVCAR-4, 72 h, OVCAR4, 72 h (Table 9)): > 50 µM
IC50 (cancer cell lines; Homo sapiens, PANC-1, 72 h, PANC1, 72 h (Table 9)): > 50 µM
IC50 (cancer cell lines; Homo sapiens, PLC-PRF-5, 72 h, PLCPRF5, 72 h (Table 9)): > 50 µM
IC50 (cancer cell lines; Homo sapiens, Panc1005, 72 h, PANC1005, 72 h (Table 9)): > 50 µM
IC50 (cancer cell lines; Homo sapiens, Ramos, 72 h, 72 h (Table 9)): 1.96 µM
IC50 (cancer cell lines; Homo sapiens, SAOS-2, 72 h, SAOS2, 72 h (Table 9)): > 50 µM
IC50 (cancer cell lines; Homo sapiens, SF-268, 72 h, SF268, 72 h (Table 9)): > 50 µM
IC50 (cancer cell lines; Homo sapiens, SF-295, 72 h, SF295, 72 h (Table 9)): > 50 µM
IC50 (cancer cell lines; Homo sapiens, SK-BR-3, 72 h, SKBR3, 72 h (Table 9)): 3.47 µM
IC50 (cancer cell lines; Homo sapiens, SK-HEP1, 72 h, SKHEP1, 72 h (Table 9)): > 50 µM
IC50 (cancer cell lines; Homo sapiens, SK-LMS-1, 72 h, SKLMS1, 72 h (Table 9)): > 50 µM
IC50 (cancer cell lines; Homo sapiens, SK-MEL-5, 72 h, SKMEL5, 72 h (Table 9)): > 50 µM
IC50 (cancer cell lines; Homo sapiens, SK-MEL-28, 72 h, SKMEL28, 72 h (Table 9)): > 50 µM
IC50 (cancer cell lines; Homo sapiens, SK-N-AS, 72 h, SKNAS, 72 h (Table 9)): > 50 µM
IC50 (cancer cell lines; Homo sapiens, SK-N-SH, 72 h, SKNSH, 72 h (Table 9)): 6.99 µM
IC50 (cancer cell lines; Homo sapiens, SK-OV-3, 72 h, SKOV3, 72 h (Table 9)): > 50 µM
IC50 (cancer cell lines; Homo sapiens, SNB-75, 72 h, SNB75, 72 h (Table 9)): > 50 µM
IC50 (cancer cell lines; Homo sapiens, SU-DHL10, 72 h, SU-DHL-10, 72 h (Table 9)): > 50 µM
IC50 (cancer cell lines; Homo sapiens, SU-DHL-6, 72 h, SU-DHL-6, 72 h (Table 9)): 4.2 µM
IC50 (cancer cell lines; Homo sapiens, SW-620, 72 h, SW620, 72 h (Table 9)): > 50 µM
IC50 (cancer cell lines; Homo sapiens, TE-671, 72 h, TE671, 72 h (Table 9)): > 50 µM
IC50 (cancer cell lines; Homo sapiens, THP-1, 72 h, THP-1, 72 h (Table 9)): 2.04 µM
IC50 (cancer cell lines; Homo sapiens, U2OS, 72 h, 72 h (Table 9)): > 50 µM
IC50 (cancer cell lines; Homo sapiens, U-87 MG, 72 h, U87MG, 72 h (Table 9)): 18.5 µM
IC50 (cancer cell lines; Homo sapiens, UMUC3, 72 h, UMUC3, 72 h (Table 9)): > 50 µM
IC50 (cancer cell lines; Homo sapiens, UO-31, 72 h, UO31, 72 h (Table 9)): 11.2 µM
IC50 (cancer cell lines; Homo sapiens, WSU-NHL, 72 h, 72 h (Table 9)): 2.46 µM
IC50 (cancer cell lines; NCI-H358M, 72 h, NCIH358M, 72 h (Table 9)): 4.54 µM
IC50 (cancer cell lines; PBMC, 72 h, 72 h (Table 9)): > 50 µM
IC50 (cancer cell lines; RD-ES, 72 h, RDES, 72 h (Table 9)): > 50 µM
SMILES: Nc1nc(=O)n([C@@H]2C=C[C@H](CO)O2)cc1F [Elvucitabine, reference compound]
